Experimental data: US11655216B2 (priority 2016, dated 2023)
Read-outs that look alike come from different tables or passages of the source.

How the values were obtained:
[1] = biological target: T1, glutathione-S-transferase (GST) tagged LXRbeta LBD (ligand binding domain) (Homo sapiens, UniProt P55055); experiment: LanthaScreen TR-FRET Liver X Receptor Coactivator Assay, LXR beta; assay type: biochemical; details: for LXR beta actiivty at max dose: efficacy (% Emax) in relation to reference dual agonist T0901317; for EC50: potency (Inflection Point), compound-induced co-activator recruitment, TR-FRET; for Emax: read-out: LXR beta actiivty at max dose, efficacy (% Emax) in relation to reference dual agonist T0901317
T1 construct: purchased Invitrogen pv4658
T1 sequence (P55055 222-460 limits assumed): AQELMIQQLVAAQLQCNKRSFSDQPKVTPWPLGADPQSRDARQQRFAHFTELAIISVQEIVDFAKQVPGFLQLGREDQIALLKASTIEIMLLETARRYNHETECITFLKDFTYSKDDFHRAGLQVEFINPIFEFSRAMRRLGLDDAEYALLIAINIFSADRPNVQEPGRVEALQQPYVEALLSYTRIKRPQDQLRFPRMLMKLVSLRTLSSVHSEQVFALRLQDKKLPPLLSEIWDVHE
Method: (§1) While running the LanthaScreen™ TR-FRET Liver X Receptor Coactivator Assay, LXR alpha-LBD or LXR beta-LBD was added to ligand test compounds followed by addition of a mixture of a fluorescein-labelled coactivator peptide and terbium-conjugated anti-GST antibody. After an incubation period at room temperature, TR-FRET (time-resolved fluorescence resonance energy transfer) was measured using a filter-based instrument capable of TR-FRET, e.g. PerkinElmer Envision.

[2] = biological target: T2, glutathione-S-transferase (GST) tagged LXRalpha LBD (ligand binding domain) (Homo sapiens, UniProt Q13133); experiment: biochemical; details: for LXR alpha actiivty at max dose: efficacy (% Emax) in relation to reference dual agonist T0901317
T2 construct: purchased Invitrogen pv4655
T2 sequence (Q13133 209-447 limits assumed): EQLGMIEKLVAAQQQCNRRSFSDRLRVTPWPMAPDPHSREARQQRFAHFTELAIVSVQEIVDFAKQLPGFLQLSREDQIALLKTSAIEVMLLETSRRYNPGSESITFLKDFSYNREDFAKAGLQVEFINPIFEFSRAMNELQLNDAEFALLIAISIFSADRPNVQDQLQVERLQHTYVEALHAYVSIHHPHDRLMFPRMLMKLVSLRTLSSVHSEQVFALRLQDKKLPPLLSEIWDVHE
Method: as §1

[3] = LXR alpha IP, potency (Inflection Point), compound-induced co-activator recruitment, TR-FRET
[4] = read-out: LXR alpha actiivty at max dose, efficacy (% Emax) in relation to reference dual agonist T0901317
[5] = potency (Inflection Point), compound-induced co-activator recruitment, TR-FRET

| Compound | EC50 ([1]; LXR beta IP) | Emax [1] | EC50 [2, 3] | Emax [2, 4] | further results |
| --- | --- | --- | --- | --- | --- |
| 4-(2-((1S,2R or 1R, 2S)- 2-(1-((R or S)-2-amino- 3,3,3-trifluoro-2- phenylpropanoyl) piperidin-4- yl)cyclopropyl)ethoxy)-2- chloro-N- methylbenzamide [Example 10-4] |  |  |  |  | LXR beta actiivty at max dose [1]: 147%; EC50 ([1]; read-out: LXR beta IP): 0.008 µM; LXR alpha actiivty at max dose [2]: 83%; EC50 ([2]; potency (Inflection Point), compound-induced co-activator recruitment, TR-FRET, read-out: LXR alpha IP): 0.586 µM |
| COc1cccc(C(O)(C(=O)N2CCC3(CCC(Oc4ccc(C(=O)N(C)C)c(Cl)c4)CC3)CC2)C(F)(F)F)c1 (single isomer, unassigned) [Example 1-1, 2-chloro-N,N-dimethyl-4-(3-((R or S)-3,3,3-trifluoro-2-hydroxy-2-(3-methoxyphenyl)propanoyl)-3-azaspiro[5.5]undecan-9-yloxy)benzamide] | 0.025 µM | 51% |  |  | EC50 ([2]; LXR alpha IP): 0.663 µM; Emax ([2]; read-out: LXR alpha actiivty at max dose): 22% |
| COc1cccc(C(O)(C(=O)N2CCC3(CCC(Oc4ccc(C(=O)N(C)C)c(Cl)n4)CC3)CC2)C(F)(F)F)c1 (single isomer, unassigned) [Example 1-2, 2-chloro-N,N-dimethyl-6-(3-((S or R)-3,3,3-trifluoro-2-hydroxy-2-(3-methoxyphenyl)propanoyl)-3-azaspiro[5.5]undecan-9-yloxy)nicotinamide] | 0.092 µM |  | 1.88 µM | 35% | LXR beta actiivty at max dose [1]: 120% |
| COc1cccc(C(O)(C(=O)N2CCC3(CCC(Oc4ccc(C(=O)N(C)C)c(Cl)n4)CC3)CC2)C(F)(F)F)c1 (single isomer, unassigned) [Example 1-3, 2-chloro-N,N-dimethyl-6-(3-((R or S)-3,3,3-trifluoro-2-hydroxy-2-(3-methoxyphenyl)propanoyl)-3-azaspiro[5.5]undecan-9-yloxy)nicotinamide] | 0.075 µM |  | 1.16 µM |  | LXR beta actiivty at max dose [1]: 84%; LXR alpha actiivty at max dose [2]: 21% |
| Cc1nc(OC2CCC3(CC2)CCN(C(=O)C(O)(c2cccc(OC4CC4)c2)C(F)(F)F)CC3)ccc1C(=O)N(C)C (single isomer, unassigned) [Example 2-1, 6-(3-((R or S)-2-(3-cyclopropoxyphenyl)-3,3,3-trifluoro-2-hydroxypropanoyl)-3-azaspiro[5.5]undecan-9-yloxy)-N,N,2-trimethylnicotinamide] | 0.14 µM | 46% |  | 0% | LXR alpha IP [2, 5]: No IP |
| CN(C)C(=O)c1ccc(OCCCCC2CCN(C(=O)C(O)(c3cccc(Cl)c3)C(F)(F)F)CC2)cc1Cl (single isomer, unassigned) [Example 3-2, (S or R)-2-chloro-4-(4-(1-(2-(3-chlorophenyl)-3,3,3-trifluoro-2-hydroxypropanoyl)piperidin-4-yl)butoxy)-N,N-dimethylbenzamide] | 0.006 µM | 79% | 0.128 µM | 37% |  |
| CN(C)C(=O)c1ccc(OCCCCC2CCN(C(=O)C(O)(c3cccc(F)c3)C(F)(F)F)CC2)cc1Cl (single isomer, unassigned) [Example 3-4, (R or S)-2-chloro-N,N-dimethyl-4-(4-(1-(3,3,3-trifluoro-2-(3-fluorophenyl)-2-hydroxypropanoyl)piperidin-4-yl)butoxy)benzamide] | 0.007 µM | 73% | 0.126 µM | 41% |  |
| CN(C)C(=O)c1ccc(OCCCCC2CCN(C(=O)C3(c4ccccc4)CCCO3)CC2)cc1Cl (single isomer, unassigned) [Example 3-5, (S or R)-2-chloro-N,N-dimethyl-4-(4-(1-(2-phenyl-tetrahydrofuran-2-carbonyl)piperidin-4-yl)butoxy)benzamide] | 0.091 µM | 54% |  | 0% | LXR alpha IP [2, 5]: No IP |
| CN(C)C(=O)c1ccc(OCCCCC2CCN(C(=O)C(O)(c3ccccc3)C(F)(F)F)CC2)cc1Cl (single isomer, unassigned) [Example 3-8, 2-chloro-N,N-dimethyl-4-(4-(1-(3,3,3-trifluoro-2-hydroxy-2-phenylpropanoyl)piperidin-4-yl)butoxy)benzamide] | 0.005 µM | 85% | 0.173 µM | 30% |  |
| CN(C)C(=O)c1ccc(OCCCCC2CCN(C(=O)C(O)(c3cccc(OC(F)(F)F)c3)C(F)(F)F)CC2)cc1Cl (single isomer, unassigned) [Example 3-9, (R or S)-2-chloro-N,N-dimethyl-4-(4-(1-(3,3,3-trifluoro-2-hydroxy-2-(3-(trifluoromethoxy)phenyl)propanoyl)piperidin-4-yl)butoxy)benzamide] | 0.015 µM | 64% | 0.289 µM | 17% |  |
| CN(C)C(=O)c1ccc(OCCCCC2CCN(C(=O)C(C)(O)c3ccccc3)CC2)cc1Cl (single isomer, unassigned) [Example 3-10, (S or R)-2-chloro-4-(4-(1-(2-hydroxy-2-phenylpropanoyl)piperidin-4-yl)butoxy)-N,N-dimethylbenzamide] | 0.353 µM | 55% |  | 5% | LXR alpha IP [2, 5]: No IP |
| CC(C)Oc1cccc(C(O)(C(=O)N2CCC(CCCCOc3ccc(C(=O)N(C)C)c(Cl)c3)CC2)C(F)(F)F)c1 (single isomer, unassigned) [Example 3-11, (S or R)-2-chloro-N,N-dimethyl-4-(4-(1-(3,3,3-trifluoro-2-hydroxy-2-(3-isopropoxyphenyl)propanoyl)piperidin-4-yl)butoxy)benzamide] | 0.009 µM | 80% | 0.614 µM | 21% |  |
| CCc1cccc(C(O)(C(=O)N2CCC(CCCCOc3ccc(C(=O)N(C)C)c(Cl)c3)CC2)C(F)(F)F)c1 (single isomer, unassigned) [Example 3-12, (R or S)-2-chloro-4-(4-(1-(2-(3-ethylphenyl)-3,3,3-trifluoro-2-hydroxypropanoyl)piperidin-4-yl)butoxy)-N,N-dimethylbenzamide] | 0.016 µM | 76% |  | 15% | LXR alpha IP [2, 5]: No IP |
| COc1cccc(C(O)(C(=O)N2CCC(CCCCOc3ccc(C(=O)N(C)C)c(Cl)c3)CC2)C(F)(F)F)c1 (single isomer, unassigned) [Example 3-13, (S or R)-2-chloro-N,N-dimethyl-4-(4-(1-(3,3,3-trifluoro-2-hydroxy-2-(3-methoxyphenyl)propanoyl)piperidin-4-yl)butoxy)benzamide] | 0.394 µM | 61% |  | 0% | LXR alpha IP [2, 5]: No IP |
| CN(C)C(=O)c1ccc(OCCCCC2CCN(C(=O)C(O)(c3ccccc3)C(F)(F)F)CC2)nc1Cl (single isomer, unassigned) [Example 3-16, (R or S)-2-chloro-N,N-dimethyl-6-(4-(1-(3,3,3-trifluoro-2-hydroxy-2-phenylpropanoyl)piperidin-4-yl)butoxy)nicotinamide] | 0.259 µM | 83% |  |  |  |
| CN(C)C(=O)c1ccc(OCCCCC2CCN(C(=O)C(O)(c3ccccc3)C(F)(F)F)CC2)nc1Cl (single isomer, unassigned) [Example 3-17, (S or R)-2-chloro-N,N-dimethyl-6-(4-(1-(3,3,3-trifluoro-2-hydroxy-2-phenylpropanoyl)piperidin-4-yl)butoxy)nicotinamide] | 0.008 µM |  |  |  | LXR beta actiivty at max dose [1]: 74% |
| CN(C)C(=O)c1ccc(OCCCCC2CCN(C(=O)C(O)(c3cccc(-c4cnn(C)c4)c3)C(F)(F)F)CC2)cc1Cl (single isomer, unassigned) [Example 3-19, (R or S)-2-chloro-N,N-dimethyl-4-(4-(1-(3,3,3-trifluoro-2-hydroxy-2-(3-(1-methyl-1H-pyrazol-4-yl)phenyl)propanoyl)piperidin-4-yl)butoxy)benzamide] | 0.124 µM | 24% | 1.15 µM | 25% |  |
| CN(C)C(=O)c1ccc(OCCCC2CCN(C(=O)[C@](O)(c3ccccc3)C(F)(F)F)CC2)nc1Cl (single isomer, unassigned) [Example 3-20] | 0.025 µM | 74% | 2.29 µM | 28% |  |
| CCc1nc(OCCCCC2CCN(C(=O)C(O)(c3ccccc3)C(F)(F)F)CC2)ccc1C(=O)N(C)C (stereo not shown) [Example 5-2, 2-ethyl-N,N-dimethyl-6-(4-(1-(3,3,3-trifluoro-2-hydroxy-2-phenylpropanoyl)piperidin-4-yl)butoxyl)nicotinamide] | 0.063 µM | 77% |  |  |  |
